# Experiments:
# platelets = assay: ex-vivo dynamic evaluation of platelet aggregate formation in a whole-blood sample flowing through a perfusion chamber (fluorescence imaging); type: cell-based, human; settings: mean value, blood of subjects under the therapy; 8-bit acquisition system
# Text: (§1) The present invention firstly relates to a method for the dynamic “ex-vivo” evaluation of the coagulation process in a patient's blood sample, characterized in that such a method comprises the simultaneous determination on the same blood sample of both the time, quantity and speed of platelet aggregate formation and of fibrin formation time, quantity and speed.
# According to some embodiments, the method of the invention comprises the following steps: • a) providing a whole-blood sample taken from a subject and added with an anti-coagulant substance; • b) treating the blood sample of step a) with a solution consisting of fluorescent probes for marking platelets and fibrin capable of binding more or less specifically to platelets and fibrin and emitting fluorescent light on two different emission frequencies and of a recalcification solution of the blood sample. […]
# fibrin = assay: ex-vivo dynamic evaluation of fibrin formation in a whole-blood sample flowing through a perfusion chamber (fluorescence imaging); type: cell-based, human; settings: mean value, blood of subjects under the therapy; 8-bit acquisition system
# Text: as §1
# According to some embodiments, the method of the invention comprises the following steps: • a) providing a whole-blood sample taken from a subject and added with an anti-coagulant substance; • b) treating the blood sample of step a) with a solution consisting of fluorescent probes for marking platelets and fibrin capable of binding more or less specifically to platelets and fibrin and emitting fluorescent light on two different emission frequencies and of a recalcification solution of the blood sample. The two aforesaid solutions can also be combined in a single solution or single reagent; • c) introducing said recalcified blood sample into an analytical device having at least one perfusion chamber, in which at least one wall consists of a transparent material comprising a cytoadhesive substance, the blood sample being made to flow into the perfusion chamber in known and measurable flow conditions; • d) during the blood flow in the perfusion chamber, alternately acquiring at least two series of fluorescence images, so that at least one series of fluorescence images is acquired at an emission wavelength characteristic of the fluorescent probe for platelets and at least one other series of fluorescence images is acquired at another emission wavelength characteristic of the fluorescent probe for fibrin; • e) binarizing the pixels of the acquired images for the platelets and for the fibrin, so as to generate a first curve of area covered by illuminated pixels vs. time (t) for the formation of a platelet aggregate and a second curve of area covered by illuminated pixels vs. time for the fibrin formation; • f) generating a first curve of average fluorescence intensity vs. time for the formation of the platelet aggregate and a second curve of average fluorescence intensity vs. time for the fibrin formation; • in which the method comprises at least one of the following steps: • g) generating a first integrated density curve defined as the product of area and fluorescence intensity vs. time for the formation of the platelet aggregate and a second integrated density curve defined as the product of area and fluorescence intensity vs. time for the fibrin formation; • h) generating a curve of particle number vs. time, in which the number of particles is given by the number of platelet aggregates consisting of more than 2 illuminated pixels; • i) generating a curve of particle size vs. time, in which the particle size is given by the average size of the platelet aggregates consisting of more than 2 illuminated pixels; • j) generating values of maximum slope, defined as the relative maximum points of the first derivative function calculated for the curves of the parameter obtained in said at least one step e), f), g), h) and i); • k) generating values of maximum acceleration, defined as the relative maximum points of the second derivative function calculated for the curves of the parameter obtained in said at least one step e), f), g), h) and i); • l) generating values of F/P ratio, defined as the ratio of the AUCs of fibrin to the AUCs of the platelets of the parameter obtained in said at least one step e), f) and g); • the method further comprising the steps of: • m) generating a lag time value representing the fibrin formation time defined as the time corresponding to the first occurrence of five consecutive images in which the value of the measured area related to fibrin is >1% of the maximum peak value of the curve; • n) generating AUC (Area Under the Curve) values given by the area under the curve of each parameter obtained in steps e), f), g), h) and i). […]
smiles,measurement,setting,value
"CC(=O)Oc1ccccc1C(=O)O [ASA, acetylsalicylic acid]",Platelets AUC Area (area under the curve of the area curve),platelets,3.4 ×10^7
same,Platelets AUC ID (area under the curve of the integrated density curve),platelets,3.0 ×10^9
same,Platelets AUC MGV (area under the curve of the fluorescence intensity curve),platelets,2.0 ×10^4
same,F/P Area (AUC Area ratio of fibrin to platelets),fibrin,1.0
same,F/P ID (AUC ID ratio of fibrin to platelets),fibrin,2.2
same,F/P MGV (AUC MGV ratio of fibrin to platelets),fibrin,1.2
same,Fibrin AUC Area (area under the curve of the area curve),fibrin,3.0 ×10^7
same,Fibrin AUC ID (area under the curve of the integrated density curve),fibrin,4.3 ×10^9
same,Fibrin AUC MGV (area under the curve of the fluorescence intensity curve),fibrin,2.0 ×10^4
same,Lag Time (fibrin formation time),fibrin,267.5 s
